Experimental data reported in US20220089575A1, “FARNESOID X RECEPTOR AGONISTS AND USES THEREOF” (Metacrine, Inc., priority 2017, published 2022).

These compounds were tested against T1, hFXR (Homo sapiens, UniProt Q96RI1) (assay: In Vitro FXR Assay (TK): TK-ECRE-luc reporter in transfected CV-1 cells). Conditions: 18 hrs, luminescence, maximum efficacy of <25% of the Fexarmine control classified as '+'.
T1 construct: expressed in transfected cells; host or cells: CV-1 cells
T1 sequence (Q96RI1 1-486): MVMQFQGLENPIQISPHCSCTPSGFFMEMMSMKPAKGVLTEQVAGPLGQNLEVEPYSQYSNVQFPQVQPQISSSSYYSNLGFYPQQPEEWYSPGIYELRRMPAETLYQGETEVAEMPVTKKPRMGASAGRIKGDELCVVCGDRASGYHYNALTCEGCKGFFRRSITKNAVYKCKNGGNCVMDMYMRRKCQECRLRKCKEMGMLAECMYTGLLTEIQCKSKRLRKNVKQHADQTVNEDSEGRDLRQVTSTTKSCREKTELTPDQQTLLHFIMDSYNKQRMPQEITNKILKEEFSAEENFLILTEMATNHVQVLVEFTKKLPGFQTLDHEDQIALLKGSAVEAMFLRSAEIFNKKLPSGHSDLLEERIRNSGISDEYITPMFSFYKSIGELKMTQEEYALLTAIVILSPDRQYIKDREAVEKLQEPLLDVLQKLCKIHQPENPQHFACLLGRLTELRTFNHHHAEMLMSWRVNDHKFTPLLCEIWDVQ
T1 sequence (P19793 1-462 partner): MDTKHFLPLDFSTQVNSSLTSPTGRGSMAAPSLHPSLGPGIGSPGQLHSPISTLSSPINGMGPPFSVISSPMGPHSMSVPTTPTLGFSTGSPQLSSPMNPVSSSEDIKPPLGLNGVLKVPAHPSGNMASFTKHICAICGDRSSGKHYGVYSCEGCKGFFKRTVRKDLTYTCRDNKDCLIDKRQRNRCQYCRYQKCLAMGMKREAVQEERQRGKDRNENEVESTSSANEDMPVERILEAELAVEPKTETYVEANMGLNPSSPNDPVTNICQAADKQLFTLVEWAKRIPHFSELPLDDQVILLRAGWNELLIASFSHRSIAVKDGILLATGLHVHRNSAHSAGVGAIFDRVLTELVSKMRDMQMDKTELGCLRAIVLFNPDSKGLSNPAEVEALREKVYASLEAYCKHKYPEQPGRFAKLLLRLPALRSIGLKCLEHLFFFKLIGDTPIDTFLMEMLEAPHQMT
Type: cell-based
Method in brief: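 Reporter transactivation by hFXR was measured in CV-1 cells carrying hRXR and a TK-ECRE-luc construct, with compound treatment for 18 h before lysis and luminescence detection.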
Compound `COc1ccc([C@H]2CC[C@H](CN(c3cc(-c4cnn(C5CC5)c4)ccn3)C(=O)[C@H]3CC[C@H](C(=O)O)CC3)CC2)nc1C` [Compound 17.21, trans-4-((4-(1-Cyclopropyl-1H-pyrazol-4-yl)pyridin-2-yl)((trans-4-(5-methoxy-6-methylpyridin-2-yl)cyclohexyl)methyl)carbamoyl) cyclohexanecarboxylic acid] has an EC50 of no less than 1000 nM.
`COc1ccc([C@H]2CC[C@H](CN(c3cccc(-c4cnn(C5CC5)c4)c3)C(=O)[C@H]3CC[C@H](C(=O)O)CC3)CC2)cc1C#N` [Compound 17.22, trans-4-(((trans-4-(3-Cyano-4-methoxyphenyl)cyclohexyl)methyl)(3-(1-cyclopropyl-1H-pyrazol-4-yl)phenyl)carbamoyl)cyclohexanecarboxylic acid] gave an EC50 of no more than 250 nM.
For `COc1ccc([C@H]2CC[C@H](CN(c3cc(-c4cnn(C5CC5)c4)ccn3)C(=O)[C@H]3CC[C@H](CC(=O)O)CC3)CC2)nc1C` [Compound 17.23, 2-(trans-4-((4-(1-Cyclopropyl-1H-pyrazol-4-yl)pyridin-2-yl)((trans-4-(5-methoxy-6-methylpyridin-2-yl)cyclohexyl)methyl)carbamoyl)cyclohexyl)acetic acid], the EC50 was 250 to 1000 nM.
Compound `COc1ccc([C@H]2CC[C@H](CN(c3cccc(-c4cnn(C5CC5)c4)c3)C(=O)[C@H]3CC[C@H](CC(=O)O)CC3)CC2)nc1C` [Compound 17.24, 2-(trans-4-((3-(1-Cyclopropyl-1H-pyrazol-4-yl)phenyl)((trans-4-(5-methoxy-6-methylpyridin-2-yl)cyclohexyl)methyl)carbamoyl)cyclohexyl)acetic acid] has an EC50 of no more than 250 nM.
`COc1ccc([C@H]2CC[C@H](CN(c3cc(-c4cnn(C(C)C)c4)ccn3)C(=O)[C@H]3CC[C@H](CC(=O)O)CC3)CC2)nc1C` [Compound 17.25, 2-(trans-4-((4-(1-Isopropyl-1H-pyrazol-4-yl)pyridin-2-yl)((trans-4-(5-methoxy-6-methylpyridin-2-yl)cyclohexyl)methyl)carbamoyl)cyclohexyl) acetic acid] gave an EC50 of no more than 250 nM.
Work on `COc1ccc([C@H]2CC[C@H](CN(c3cc(-c4cnn(C(C)C)c4)ccn3)C(=O)[C@H]3CC[C@H](CC(=O)O)CC3)CC2)cc1C#N` [Compound 17.26, 2-(trans-4-(((trans-4-(3-Cyano-4-methoxyphenyl)cyclohexyl)methyl)(4-(1-isopropyl-1H-pyrazol-4-yl)pyridin-2-yl)carbamoyl)cyclohexyl)acetic acid] yielded an EC50 of no more than 250 nM.
With `COc1ccc([C@H]2CC[C@H](CN(c3cc(-c4cnn(C(C)C)c4)ccn3)C(=O)[C@H]3CC[C@H](CC(=O)O)CC3)CC2)nc1C#N` [Compound 17.27, 2-(trans-4-(((trans-4-(6-Cyano-5-methoxypyridin-2-yl)cyclohexyl)methyl)(4-(1-isopropyl-1H-pyrazol-4-yl)pyridin-2-yl)carbamoyl)cyclohexyl)acetic acid] the EC50 was no less than 1000 nM.
For `COc1ccc([C@H]2CC[C@H](CN(c3cccc(-c4coc(C5CC5)n4)c3)C(=O)[C@H]3CC[C@H](C(=O)O)CC3)CC2)cc1C#N` [Compound 18, trans-4-(((trans-4-(3-Cyano-4-methoxyphenyl)cyclohexyl)methyl)(3-(2-cyclopropyloxazol-4-yl)phenyl)carbamoyl)cyclohexanecarboxylic acid], the EC50 was no more than 250 nM.
`COc1ccc([C@H]2CC[C@H](CN(c3cccc(-c4coc(C5CC5)n4)c3)C(=O)[C@H]3CC[C@H](C(=O)O)CC3)CC2)nc1C` [Compound 18.01, trans-4-((3-(2-Cyclopropyloxazol-4-yl)phenyl)((trans-4-(5-methoxy-6-methylpyridin-2-yl)cyclohexyl)methyl)carbamoyl) cyclohexanecarboxylic acid] gave an EC50 of no more than 250 nM.
Work on `COc1ccc([C@H]2CC[C@H](CN(c3cc(-c4coc(C5CC5)n4)ccn3)C(=O)[C@H]3CC[C@H](C(=O)O)CC3)CC2)cc1C` [Compound 18.02, trans-4-((4-(2-Cyclopropyloxazol-4-yl)pyridine-2-yl)((trans-4-(4-methoxy-3-methylphenyl)cyclohexyl)methyl)carbamoyl)cyclohexanecarboxylic acid] yielded an EC50 of no more than 250 nM.
`COc1ccc(C23CCC(CN(c4cc(-c5coc(C6CC6)n5)ccn4)C(=O)[C@H]4CC[C@H](C(=O)O)CC4)(CC2)CC3)cc1C` [Compound 18.03, trans-4-((4-(2-Cyclopropyloxazol-4-yl)pyridin-2-yl)((4-(4-methoxy-3-methylphenyl)bicyclo[2.2.2]octan-1-yl)methyl)carbamoyl) cyclohexanecarboxylic acid] was tested, and the EC50 was no more than 250 nM.
`CN(C)c1ccc([C@H]2CC[C@H](CN(c3cccc(-c4coc(C5CC5)n4)c3)C(=O)[C@H]3CC[C@H](C(=O)O)CC3)CC2)cn1` [Compound 18.04, trans-4-((3-(2-Cyclopropyloxazol-4-yl)phenyl)((trans-4-(6-(dimethylamino)pyridine-3-yl)cyclohexyl)methyl)carbamoyl) cyclohexanecarboxylic acid] was tested, and the EC50 was no more than 250 nM.
Compound `COc1ccc([C@H]2CC[C@H](CN(c3cccc(-c4coc(C5CC5)n4)c3)C(=O)[C@H]3CC[C@H](C(=O)O)CC3)CC2)nc1C#N` [Compound 18.05, trans-4-(((trans-4-(6-Cyano-5-methoxypyridin-2-yl)cyclohexyl)methyl)(3-(2-cyclopropyloxazol-4-yl)phenyl)carbamoyl) cyclohexanecarboxylic acid] has an EC50 of no more than 250 nM.
With `COc1ccc([C@H]2CC[C@H](CN(c3cccc(-c4cnc(C5CC5)s4)c3)C(=O)[C@H]3CC[C@H](C(=O)OC)CC3)CC2)cc1C` [Compound 18.06, trans-Methyl 4-((3-(2-cyclopropylthiazol-5-yl)phenyl)((trans-4-(4-methoxy-3-methylphenyl)cyclohexyl)methyl)carbamoyl) cyclohexanecarboxylate] the EC50 was no more than 250 nM.
`COc1ncc(-c2cccc(N(C[C@H]3CC[C@H](c4ccc(OC)c(C)c4)CC3)C(=O)[C@H]3CC[C@H](C(=O)OC)CC3)c2)s1` [Compound 18.07, trans-Methyl 4-(((trans-4-(4-methoxy-3-methylphenyl)cyclohexyl)methyl)(3-(2-methoxythiazol-5-yl)phenyl)carbamoyl)cyclohexanecarboxylate] was tested, and the EC50 was no more than 250 nM.
With `COC(=O)[C@H]1CC[C@H](C(=O)N(C[C@H]2CC[C@H](c3ccc(N(C)C)nc3)CC2)c2cccc(-c3cnc(C4CC4)s3)c2)CC1` [Compound 18.08, trans-Methyl 4-((3-(2-cyclopropylthiazol-5-yl)phenyl)((trans-4-(6-(dimethylamino)pyridin-3-yl)cyclohexyl)methyl)carbamoyl) cyclohexanecarboxylate] the EC50 was no more than 250 nM.
Compound `COc1ccc([C@H]2CC[C@H](CN(c3cccc(-c4cnc(C5CC5)s4)c3)C(=O)[C@H]3CC[C@H](C(=O)OC)CC3)CC2)nc1C#N` [Compound 18.09, trans-Methyl 4-(((trans-4-(6-cyano-5-methoxypyridin-2-yl)cyclohexyl)methyl)(3-(2-cyclopropylthiazol-5-yl)phenyl)carbamoyl) cyclohexanecarboxylate] has an EC50 of no more than 250 nM.
`COC(=O)C12CCC(C(=O)N(C[C@H]3CC[C@H](c4ccc(OC)c(C)c4)CC3)c3cccc(-c4cnc(OC)s4)c3)(CC1)CC2` [Compound 18.10, Methyl 4-(((trans-4-(4-methoxy-3-methylphenyl)cyclohexyl)methyl)(3-(2-methoxythiazol-5-yl)phenyl)carbamoyl)bicyclo[2.2.2]octane-1-carboxylate] was tested, and the EC50 was no more than 250 nM.
Work on `COc1ncc(-c2cccc(N(C[C@H]3CC[C@H](c4ccc(OC)c(C)c4)CC3)C(=O)[C@H]3CC[C@H](OCc4ccccc4)CC3)c2)s1` [Compound 18.11, trans-4-(Benzyloxy)-N-((trans-4-(4-methoxy-3-methylphenyl)cyclohexyl)methyl)-N-(3-(2-methoxythiazol-5-yl)phenyl)cyclohexanecarboxamide] yielded an EC50 of no less than 1000 nM.
Work on `COc1ccc(CO[C@H]2CC[C@H](C(=O)N(C[C@H]3CC[C@H](c4ccc(OC)c(C)c4)CC3)c3cccc(-c4cnc(OC)s4)c3)CC2)cc1` [Compound 18.12, trans-N-((trans-4-(4-Methoxy-3-methylphenyl)cyclohexyl)methyl)-4-((4-methoxybenzyl)oxy)-N-(3-(2-methoxythiazol-5-yl)phenyl) cyclohexanecarboxamide] yielded an EC50 of no less than 1000 nM.
`COc1ccc([C@H]2CC[C@H](CN(c3cccc(-c4cnn(C5CC5)c4)c3)C(=O)[C@H]3CC[C@H](C(=O)OC)CC3)CC2)cc1C` [Compound 18.13, trans-Methyl 4-((3-(1-cyclopropyl-1H-pyrazol-4-yl)phenyl)((trans-4-(4-methoxy-3-methylphenyl)cyclohexyl)methyl)carbamoyl) cyclohexanecarboxylate] gave an EC50 of no more than 250 nM.
